Data on one compound can be found in patent US20100222394A1, “METHOD FOR PRODUCING PYRAZOL-3-YL-BENZAMIDE DERIVATIVE” (priority 2007, published 2010).

Data set [1] concerns the target recombinant human liver GK (Homo sapiens, UniProt P35557). In words: biochemical. Also on record: Emax: dose or concentration left out as unconfirmed. An excerpt: The glucokinase activity may be determined not by directly measuring glucose-6-phosphate but by measuring the level of Thio-NADH, which is produced when a reporter enzyme, glucose-6-phosphate dehydrogenase produces phosphogluconolactone from glucose-6-phosphate, and based on the level, the degree of glucokinase activity of the compound tested may be determined.
In this assay, used was a recombinant human liver GK, which was expressed by E. coli as a FLAG fusion protein therein and was purified by […] M2 AFFINITY GEL (Sigma).
69 μl of an assay buffer (25 mM Hepes Buffer/pH=7.2, 2 mM MgCl2, 1 mM ATP, 0.5 mM TNAD, 1 mM dithiothreitol) was put into the plate, and 1 μl of a DMSO solution of the compound or DMSO alone as a control was added thereto. Next, 20 μl of an enzyme mixture (FLAG-GK, 20 U/ml G6PDH) cooled in ice was added to it, and 10 μl of a substrate, 25 mM glucose was added to it, and the reaction was initiated (final glucose concentration=2.5 mM).
The OD level of the DMSO control was set as 100%; and the OD level of the test compound at different concentrations was determined. From the OD level at each concentration, Emax (%) and EC50 (μM) were computed and used as the index of the GK-activating potency of the compound.

A short description of data set [2]: Thermogravimetric analysis. In kind it is physicochemical. The following applies: flow of nitrogen, heating rate 10° C./min. The procedure:
(§1) A Perkin Elmer model TG 7 or equivalent instrument is used. Experiments are performed under a flow of nitrogen and using a heating rate 10° C./min to a maximum temperature of 500° C. Approximately 10 mg of sample is added to the platinum pan. Weight/temperature data are collected automatically by the instrument. Compound 9 doesn't show obvious weight loss until 180° C.

Data set [3] is described as follows: Solid-state properties of the crystal compared to the amorphous form (from thermogravimetric analysis and X-ray powder diffraction). The format is physicochemical. The following applies: compared to amorphous form of the free benzamide of patent document 1. The procedure:
as §1
Obtain the X-ray diffraction pattern of a finely-powdered, randomly orientated sample, using copper K alpha X-radiation from 4 to 40 theta.
Bruker powder X-ray diffractometer D8ADVANCE (at 2 kW) (bull car ray X id bull car ray X id Co., Ltd.) is used, and a powder X-ray diffraction experiment was done.

Sequence of recombinant human liver GK (P35557 1-466 isoform P35557-2): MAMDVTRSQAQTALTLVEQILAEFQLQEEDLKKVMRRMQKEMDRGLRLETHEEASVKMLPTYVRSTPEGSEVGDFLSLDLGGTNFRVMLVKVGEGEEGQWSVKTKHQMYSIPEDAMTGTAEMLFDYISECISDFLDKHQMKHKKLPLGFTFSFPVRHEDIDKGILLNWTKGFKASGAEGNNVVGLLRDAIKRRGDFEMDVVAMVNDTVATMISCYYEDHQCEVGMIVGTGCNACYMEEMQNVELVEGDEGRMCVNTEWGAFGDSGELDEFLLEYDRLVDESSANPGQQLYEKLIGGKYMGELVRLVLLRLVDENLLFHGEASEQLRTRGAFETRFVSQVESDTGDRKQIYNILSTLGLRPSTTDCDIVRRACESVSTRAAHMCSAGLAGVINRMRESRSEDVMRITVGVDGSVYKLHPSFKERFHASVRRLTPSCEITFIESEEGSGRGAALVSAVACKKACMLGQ

Broadly, the EC50 is the midpoint of the concentration-response curve. One may read the Emax as the greatest response seen or fitted, relative to the assay's reference. Regarding `CCS(=O)(=O)c1ccc(Oc2cc(O[C@@H](C)CO)cc(C(=O)Nc3ccn(C)n3)c2)cn1.CS(=O)(=O)O` [3-(6-ethanesulfonylpyridin-3-yloxy)-5-((1S)-2-hydroxy-1-methyl-ethoxy)-N-(1-methyl-1H-pyrazol-3-yl)benzamide methanesulfonate], in data set [1], the 50% effective concentration (EC50) amounted to 30 nM and the Emax is 828%. Besides, the “temperature until which no obvious weight loss is shown” value in data set [2] was at least 180 °C. Moreover, in data set [3], the hygroscopicity result is “less hygroscopicity” and the physical stability result is on record as “stability physically”.
